Data on 2 molecules can be found in publication PMC5877439 (British Journal of Cancer, 2018).

The subject of one series is Notch signalling. The experiment in a line: Notch signature score in plucked hair follicles. In kind it is in vivo, human. To be noted: number of samples limited.
Series [1] is described as follows: Plasma MK-0752 PK analysis. It counts as in vivo, human.
The nature of series [2]: Tumour MK-0752 concentration in biopsies. In kind it is in vivo, human. The settings on record: between the 1500 and 2100 mg doses; data limited.
Series [3] is described as follows: Safety, tolerability, DLT and MTD. It counts as in vivo, human.
The conditions of series [4]: ref Krop et al, 2012, cited from earlier work.

Structures are written as SMILES.

Consider `O=C(O)CC[C@H]1CC[C@@](c2cc(F)ccc2F)(S(=O)(=O)c2ccc(Cl)cc2)CC1` [MK-0752], for which the “Relationship between MK-0752 dose and fold-change in Notch score” value in the series with Notch signalling is on record as “no relationship”. The “MK-0752 plasma exposure across the dose groups” value in series [1] (1200-2400 mg once weekly) is “no increment in exposure beyond the RP2D single-agent dose (1800 mg weekly)”. For the same molecule, in series [1] (day 1 (MK-0752+gemcitabine) vs day -7 (MK-0752 alone), 40 patients), the “Plasma MK-0752 exposure (AUC0-t) and Cmax, effect of gemcitabine” value is given as “did not appear to be affected by the addition of gemcitabine”. Moreover, the “Tumour MK-0752 concentration across doses” value in series [2] is given as “no increment”. Further, the “MTD / RP2D of MK-0752 in combination with gemcitabine” value in series [3] (p.o. once weekly, with gemcitabine 1000 mg m^-2) came to 1800 mg. The “Drug exposure with dose, single agent” value in series [4] (phase I studies of MK-0752 alone) is “no significant increase in drug exposure between 1800 mg and 3200 mg”. In series [4] (single-agent studies), the “Recommended dose for phase II evaluation (RP2D), single agent” value is 1800 mg. Also, the “Maximum tolerated dose (MTD), single agent” value in series [4] (weekly schedule, MK-0752 alone) is 3200 mg.

For the molecule `Nc1ccn([C@@H]2O[C@H](CO)[C@@H](O)C2(F)F)c(=O)n1` [gemcitabine, 2′,2′,-difluoro-2′,-deoxycytidine, reference compound], the “MTD / RP2D of gemcitabine in combination with MK-0752” value in series [3] (i.v. days 1, 8 and 15 of 28 day cycle, with MK-0752 1800 mg) was determined as 1000 mg m^-2.
